Calls of active or inactive are those of the source. No cut-off for these calls is given here.
Key:
[1] = Inhibition of pig skin LOX incubated for 45 mins by Amplex red dye based and HRP coupled assay; parameters: species or system Sus scrofa
[2] = molecular target: T1, Protein-lysine 6-oxidase (Homo sapiens) (UniProt P28300); settings: MDA-MB-231, 1 mM
T1 sequence (whole entry): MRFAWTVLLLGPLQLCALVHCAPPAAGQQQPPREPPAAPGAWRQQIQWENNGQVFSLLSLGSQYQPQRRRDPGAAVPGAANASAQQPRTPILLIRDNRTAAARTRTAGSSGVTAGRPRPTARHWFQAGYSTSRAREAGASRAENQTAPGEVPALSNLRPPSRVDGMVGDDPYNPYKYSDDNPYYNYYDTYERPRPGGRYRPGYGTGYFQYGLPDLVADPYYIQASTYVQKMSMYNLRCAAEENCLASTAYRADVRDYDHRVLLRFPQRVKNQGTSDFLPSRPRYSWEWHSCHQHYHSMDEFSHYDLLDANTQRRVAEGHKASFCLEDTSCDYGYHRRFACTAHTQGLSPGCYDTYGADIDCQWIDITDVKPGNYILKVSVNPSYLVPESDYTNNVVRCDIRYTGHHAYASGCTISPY

SMILES | IC50 [1] | inhibition [2]
NCc1ncc(S(=O)(=O)c2ccc3ccccc3c2)s1 | 1400 nM | –
N#CCCN | – | Active

From ChEMBL document CHEMBL4420079, “Methylamine derivatives as lysysl oxidase inhibitors for the treatment of cancer” (2017)
